Reference: ChEMBL document CHEMBL1127221, “The design of a dipeptide library for screening at peptide receptor sites” (Bioorg Med Chem Lett, 1993)

Experiments:
[1] = target: T1, Gastrin/cholecystokinin type B receptor (Homo sapiens, UniProt P32239); assay: Inhibitory activity against Cholecystokinin type B receptor
T1 sequence (P32239 whole entry): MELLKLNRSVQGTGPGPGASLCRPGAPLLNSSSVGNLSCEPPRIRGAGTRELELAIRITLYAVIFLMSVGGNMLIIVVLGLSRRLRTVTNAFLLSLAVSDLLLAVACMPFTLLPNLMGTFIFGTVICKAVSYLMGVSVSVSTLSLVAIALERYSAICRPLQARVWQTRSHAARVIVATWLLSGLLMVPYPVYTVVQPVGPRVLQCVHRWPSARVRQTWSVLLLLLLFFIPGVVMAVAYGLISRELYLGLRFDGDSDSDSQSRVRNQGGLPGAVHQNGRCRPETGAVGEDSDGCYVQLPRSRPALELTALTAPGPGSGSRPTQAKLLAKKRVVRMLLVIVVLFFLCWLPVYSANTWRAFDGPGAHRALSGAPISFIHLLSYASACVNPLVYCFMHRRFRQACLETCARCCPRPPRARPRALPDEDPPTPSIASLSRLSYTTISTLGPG

[2] = target: T2, Cholecystokinin receptor type A (Homo sapiens, UniProt P32238); assay: Inhibitory activity against CCK-A receptor
T2 sequence (P32238 whole entry): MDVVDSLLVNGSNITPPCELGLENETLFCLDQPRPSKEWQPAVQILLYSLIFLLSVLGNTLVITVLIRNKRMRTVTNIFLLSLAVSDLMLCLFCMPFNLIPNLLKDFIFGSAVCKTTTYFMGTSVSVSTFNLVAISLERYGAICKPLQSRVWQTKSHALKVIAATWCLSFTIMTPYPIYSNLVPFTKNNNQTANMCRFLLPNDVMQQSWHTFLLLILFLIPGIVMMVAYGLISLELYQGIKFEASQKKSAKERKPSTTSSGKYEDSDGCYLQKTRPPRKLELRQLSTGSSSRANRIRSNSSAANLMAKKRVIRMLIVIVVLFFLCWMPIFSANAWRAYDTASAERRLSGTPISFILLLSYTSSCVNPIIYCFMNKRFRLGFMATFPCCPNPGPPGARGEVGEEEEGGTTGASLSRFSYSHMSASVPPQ

[3] = target: Angiotensin-converting enzyme (Homo sapiens, UniProt P12821); assay: Inhibitory activity against Angiotensin I converting enzyme
Chain of Angiotensin-converting enzyme (P12821 whole entry): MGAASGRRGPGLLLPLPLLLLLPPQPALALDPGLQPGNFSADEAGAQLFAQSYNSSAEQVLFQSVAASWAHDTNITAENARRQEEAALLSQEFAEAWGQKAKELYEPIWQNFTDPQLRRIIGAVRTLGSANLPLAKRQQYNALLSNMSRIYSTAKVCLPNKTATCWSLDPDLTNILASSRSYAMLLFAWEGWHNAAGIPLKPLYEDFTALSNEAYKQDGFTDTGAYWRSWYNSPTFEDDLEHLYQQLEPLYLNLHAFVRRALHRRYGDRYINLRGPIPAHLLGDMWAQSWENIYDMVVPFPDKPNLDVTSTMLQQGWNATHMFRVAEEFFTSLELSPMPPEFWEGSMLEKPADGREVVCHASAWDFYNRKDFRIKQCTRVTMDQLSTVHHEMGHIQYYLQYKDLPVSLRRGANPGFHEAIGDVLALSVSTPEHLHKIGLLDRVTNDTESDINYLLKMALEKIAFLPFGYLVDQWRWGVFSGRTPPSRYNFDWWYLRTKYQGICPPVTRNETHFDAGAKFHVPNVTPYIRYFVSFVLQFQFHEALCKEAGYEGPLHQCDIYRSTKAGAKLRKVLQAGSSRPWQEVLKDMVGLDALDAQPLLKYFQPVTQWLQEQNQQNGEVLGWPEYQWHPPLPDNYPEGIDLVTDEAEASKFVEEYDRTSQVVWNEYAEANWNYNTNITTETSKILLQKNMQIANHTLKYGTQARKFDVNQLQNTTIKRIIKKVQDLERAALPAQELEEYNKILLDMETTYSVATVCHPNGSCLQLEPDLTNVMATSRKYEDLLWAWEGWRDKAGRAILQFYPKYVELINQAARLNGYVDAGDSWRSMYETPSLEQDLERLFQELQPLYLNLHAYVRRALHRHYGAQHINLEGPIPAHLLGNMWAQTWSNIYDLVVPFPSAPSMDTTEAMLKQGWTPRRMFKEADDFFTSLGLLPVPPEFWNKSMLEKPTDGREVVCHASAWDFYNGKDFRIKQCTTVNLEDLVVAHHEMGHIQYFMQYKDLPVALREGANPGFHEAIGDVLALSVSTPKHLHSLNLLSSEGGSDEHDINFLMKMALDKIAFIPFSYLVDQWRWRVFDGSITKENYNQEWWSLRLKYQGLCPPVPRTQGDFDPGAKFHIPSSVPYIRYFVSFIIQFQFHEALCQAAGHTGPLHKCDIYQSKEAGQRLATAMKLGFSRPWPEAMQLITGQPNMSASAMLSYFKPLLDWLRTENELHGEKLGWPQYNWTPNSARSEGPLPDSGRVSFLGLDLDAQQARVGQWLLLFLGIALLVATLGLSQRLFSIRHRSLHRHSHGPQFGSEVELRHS

Question: With `C[C@@](N)(Cc1cn(C(=O)OC2C3CC4CC(C3)CC2C4)c2ccccc12)C(=O)NC[C@H](NC(=O)CCC(=O)O)c1ccccc1` (stereo partly drawn) as the compound, how does the Ki [1] read?
Answer: 1.7 nM

Question: With `C[C@@](N)(Cc1cn(C(=O)OC2C3CC4CC(C3)CC2C4)c2ccccc12)C(=O)N[C@H](CC(=O)O)Cc1ccccc1` (stereo partly drawn) as the compound, how does the Ki [2] read?
Answer: 3 nM

Question: Which Ki [3] does the source give for H-EWPRPQIPP-OH here?
Answer: 100 nM
